Reference: patent US12577217B2, “15-PGDH inhibitor” (KYORIN Pharmaceutical Co., Ltd., priority 2019, dated 2026)

Target: T1, recombinant human 15-PGDH (Homo sapiens, UniProt P15428)
T1 construct: purchased R&D Systems
T1 sequence (P15428 1-266): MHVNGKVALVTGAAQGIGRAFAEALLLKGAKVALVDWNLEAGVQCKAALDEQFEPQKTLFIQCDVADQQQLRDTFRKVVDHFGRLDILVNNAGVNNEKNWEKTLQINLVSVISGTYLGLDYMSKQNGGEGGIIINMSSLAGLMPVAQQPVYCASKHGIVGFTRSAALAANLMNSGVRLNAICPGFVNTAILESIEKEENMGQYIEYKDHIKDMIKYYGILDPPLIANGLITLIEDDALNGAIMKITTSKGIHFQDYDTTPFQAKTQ
Test: 15-PGDH enzyme inhibition test
Type: biochemical
Conditions: 4 nM recombinant human 15-PGDH, 30 μM PGE2, 1 mM NAD+, 60 minutes after starting the reaction; read-out: IC50 Value
Description: 15-PGDH Enzyme Inhibition Test
A test compound and 4 nM recombinant human 15-PGDH (R&D Systems) were added, in 50 mM Tris-HCl (pH 8.0) containing 0.01% TWEEN 20 (Sigma) and 0.01% bovine gamma globulin (Sigma), to a 384-well Flat Bottom Black plate (Corning, 3820), and the resultant was allowed to stand still at room temperature for 12 minutes, and 30 μM PGE2 (Cayman Chemical) and 1 mM NAD+ (Sigma) were added thereto to start the reaction. 60 minutes after starting the reaction, measurement was performed using Synergy 2 (BioTeck) at an excitation wavelength of 340 nm and a fluorescence wavelength of 440 nm. Assuming that a fluorescence signal obtained with an assay buffer added instead of the test compound and NAD+ was 100% and that a signal obtained with NAD+ added was 0%, a concentration corresponding to 50% inhibition plotted on a concentration-reaction curve of the test compound was defined as an IC50 value. Incidentally, in the following tables, an IC50 value smaller than 10 nM was shown as +++, an IC50 value equal to or larger than 10 nM and smaller than 100 nM was shown as ++, and an IC50 value equal to or larger than 100 nM was shown as +.

Compound	IC50 [nM]
CCOCn1nc2cc(N3CCCc4cc(C(=O)N5CCC[C@@H](CF)C5)cnc43)ccn2c1=O [Example 1-122]	< 10
COCCn1nc2cc(N3CCCc4cc(C(=O)N5CCC[C@@H](CF)C5)cnc43)ccn2c1=O [Example 1-123]	< 10
CCOCCn1nc2cc(N3CCCc4cc(C(=O)N5CCC[C@@H](CF)C5)cnc43)ccn2c1=O [Example 1-124]	< 10
COCCOCCn1nc2cc(N3CCCc4cc(C(=O)N5CCC[C@@H](CF)C5)cnc43)ccn2c1=O [Example 1-125]	< 10
CN1Cc2cc(N3CCOc4cc(C(=O)N5CCC(F)(F)CC5)cnc43)ccc2C1=O [Example 1-127]	< 10
O=C(c1cnc2c(c1)OCCN2c1ccc2c(=O)[nH]ccc2c1)N1CCC(F)(F)CC1 [Example 1-128]	< 10
Cn1nc2cc(N3CCOc4cc(C(=O)C5CCC(F)(F)CC5)cnc43)ccn2c1=O [Example 1-132]	< 10
CN1Cc2cc(N3CCOc4cc(C(=O)C5CCC(F)(F)CC5)cnc43)ccc2C1=O [Example 1-133]	< 10
CN1Cc2cc(N3CCOc4cc(C(=O)C5CCCCC5)cnc43)ccc2C1=O [Example 1-134]	< 10
Cn1nc2cc(N3CCCc4cc(SC5CCCCC5)cnc43)ccn2c1=O [Example 1-135]	10 to 100
CN1Cc2cc(N3CCOc4cc(SC5CCCCC5)cnc43)ccc2C1=O [Example 1-136]	10 to 100
Cn1nc2cc(N3CCOc4cc(C(=O)N5CCC(F)(F)CC5)ccc43)ccn2c1=O [Example 1-147]	< 10
O=C(c1ccc2c(c1)OCCN2c1ccn2c(=O)[nH]nc2c1)N1CCC(F)(F)CC1 [Example 1-148]	< 10
CN1Cc2cc(N3CCOc4cc(C(=O)N5CCC(F)(F)CC5)ccc43)ccc2C1=O [Example 1-149]	< 10
COc1ccc(CN2Cc3cc(N4CCOc5cc(C(=O)N6CCC(F)(F)CC6)ccc54)ccc3C2=O)c(OC)c1 [Example 1-150]	< 10
CN1Cc2cc(N3CCOc4cc(C(=O)N5CCC(F)(F)CC5)ccc43)ncc2C1=O [Example 1-151]	< 10
O=C(c1ccc2c(c1)OCCN2c1ccc2c(=O)[nH]cnc2c1)N1CCC(F)(F)CC1 [Example 1-152]	< 10
Cn1cnc2cc(N3CCOc4cc(C(=O)N5CCC(F)(F)CC5)ccc43)ccc2c1=O [Example 1-153]	< 10
COCn1nc2cc(N3CCOc4cc(C(=O)N5CCC(F)(F)CC5)ccc43)ccn2c1=O [Example 1-154]	< 10
CS(=O)(=O)NCc1ccc(N2CCOc3cc(C(=O)N4CCCCC4)ccc32)cc1 [Example 1-160]	< 10
CS(=O)(=O)CCc1ccc(N2CCOc3cc(C(=O)N4CCCCC4)ccc32)cc1 [Example 1-161]	< 10
CS(=O)(=O)Cc1ccc(N2CCOc3cc(C(=O)N4CCCCC4)ccc32)cc1 [Example 1-162]	< 10
COCCNC(=O)c1ccc(N2CCCc3cc(C(=O)N4CCC(F)(F)CC4)cnc32)cc1F [Example 1-176]	< 10
O=C(c1cnc2c(c1)CCCN2c1ccc2c(c1)CN(CC1COC1)C2=O)N1CCC(F)(F)CC1 [Example 1-177]	< 10
CNC(=O)c1ncc(N2CCCc3cc(C(=O)N4CCC(F)(F)CC4)cnc32)cc1F [Example 1-180]	< 10
O=C(c1cnc2c(c1)CCCN2c1cc2c(cn1)C(=O)N(C1COC1)C2)N1CCC(F)(F)CC1 [Example 1-183]	10 to 100
CCOCCN1Cc2cc(N3CCCc4cc(C(=O)N5CCC(F)(F)CC5)cnc43)ncc2C1=O [Example 1-185]	10 to 100
O=C(c1cnc2c(c1)CCCN2c1cc2c(cn1)C(=O)N(CC1COC1)C2)N1CCC(F)(F)CC1 [Example 1-186]	10 to 100
Cn1cnc2cc(N3CCCc4cc(C(=O)N5CCC(F)(F)CC5)cnc43)cnc2c1=O [Example 1-191]	< 10

Second part, the compound after the results:

IC50 [nM]	Compound
< 10	CCN1Cc2cc(N3CCCc4cc(C(=O)N5CCC(F)(F)CC5)cnc43)ccc2C1=O [Example 1-126]
< 10	Cn1nc2cc(N3CCCc4cc(C(=O)N5CCC(F)(F)CC5)cnc43)ccn2c1=O [Example 1-129]
< 10	Cn1nc2cc(N3CCCc4cc(C(=O)N5CCCCC5)ccc43)ccn2c1=O [Example 1-130]
< 10	COC(=O)c1ccc(N2CCCc3cc(C(=O)N4CCCCC4)ccc32)cc1 [Example 1-131]
> 100	COC(=O)c1ccccc1N1CCOc2cc(C(=O)N3CCCCC3)ccc21 [Example 1-137]
> 100	COC(=O)c1ccccc1N1CCc2cc(C(=O)N3CCCCC3)ccc21 [Example 1-138]
< 10	COC(=O)c1cccc(N2CCc3cc(C(=O)N4CCCCC4)ccc32)c1 [Example 1-139]
< 10	COC(=O)c1ccc(N2CCc3cc(C(=O)N4CCCCC4)ccc32)cc1 [Example 1-140]
< 10	Cn1nc2cc(N3CCc4cc(C(=O)N5CCCCC5)ccc43)ccn2c1=O [Example 1-141]
< 10	O=C(c1cnc2c(c1)CCCN2c1ccn2c(=O)[nH]nc2c1)N1CCC[C@H](CF)C1 [Example 1-145]
< 10	O=C(c1cnc2c(c1)CCCN2c1ccn2c(=O)[nH]nc2c1)N1CCC[C@@H](CF)C1 [Example 1-146]
< 10	O=C(c1cnc2c(c1)CCCN2c1ccc2c(=O)[nH]cnc2c1)N1CCCCC1 [Example 1-155]
< 10	N#Cc1ccc(N2CCOc3cc(C(=O)N4CCCCC4)ccc32)cc1 [Example 1-157]
< 10	Cn1cnc2cc(N3CCOc4cc(C(=O)N5CCCCC5)cnc43)ccc2c1=O [Example 1-163]
10 to 100	CN1C(=O)c2cc(N3CCOc4cc(C(=O)N5CCCCC5)cnc43)ccc2S1(=O)=O [Example 1-164]
< 10	CN1C(=O)c2ccc(N3CCOc4cc(C(=O)N5CCCCC5)cnc43)cc2S1(=O)=O [Example 1-165]
< 10	CN1C(=O)c2ccc(N3CCOc4cc(C(=O)N5CCCCC5)cnc43)cc2C1=O [Example 1-166]
10 to 100	O=C(c1cnc2c(c1)OCCN2c1ccc2c(c1)C(C1CC1)=NS2(=O)=O)N1CCCCC1 [Example 1-167]
10 to 100	O=C(c1cnc2c(c1)CCCN2c1cc2c(cn1)C(=O)N(CC1COC1)C2)N1CCCCC1 [Example 1-168]
< 10	CCN1Cc2cc(N3CCCc4cc(C(=O)N5CCCCC5)cnc43)ccc2C1=O [Example 1-169]
< 10	O=C(c1cnc2c(c1)CCCN2c1ccn2c(=O)[nH]nc2c1)N1CCCCC1 [Example 1-171]

IC50 [nM]	Compound
< 10	COCN1Cc2cc(N3CCCc4cc(C(=O)N5CCCCC5)cnc43)ccc2C1=O [Example 1-172]
< 10	O=C(c1cnc2c(c1)CCCN2c1ccc2c(=O)[nH]ccc2c1)N1CCCCC1 [Example 1-173]
< 10	Cn1ccc2cc(N3CCCc4cc(C(=O)N5CCCCC5)cnc43)ccc2c1=O [Example 1-174]
< 10	CNC(=O)c1ccc(N2CCCc3cc(C(=O)N4CCC(F)(F)CC4)cnc32)cc1F [Example 1-175]
< 10	O=C(c1cnc2c(c1)CCCN2c1ccc2c(c1)CN(C1COC1)C2=O)N1CCC(F)(F)CC1 [Example 1-178]
< 10	O=C(c1cnc2c(c1)CCCN2c1ccc2c(=O)[nH]ccc2c1)N1CCC(F)(F)CC1 [Example 1-181]
< 10	Cn1ccc2cc(N3CCCc4cc(C(=O)N5CCC(F)(F)CC5)cnc43)ccc2c1=O [Example 1-182]
< 10	O=C(c1cnc2c(c1)CCCN2c1ccn2c(=O)[nH]nc2c1)N1CCC(F)(F)CC1 [Example 1-184]
< 10	Cn1ncc2cc(N3CCCc4cc(C(=O)N5CCCCC5)cnc43)ccc2c1=O [Example 1-188]
< 10	Cn1ncc2cc(N3CCCc4cc(C(=O)N5CCC(F)(F)CC5)cnc43)ccc2c1=O [Example 1-189]
< 10	Cn1cnc2cc(N3CCCc4cc(C(=O)N5CCCCC5)cnc43)cnc2c1=O [Example 1-190]
< 10	O=C(c1cnc2c(c1)CCCN2c1cnc2c(=O)[nH]cnc2c1)N1CCC(F)(F)CC1 [Example 1-192]
< 10	Cn1ncc2cc(N3CCCc4cc(C(=O)N5CCCCC5)cnc43)cnc2c1=O [Example 1-194]
< 10	O=C(c1cnc2c(c1)CCCN2c1cnc2c(=O)[nH]ncc2c1)N1CCCCC1 [Example 1-195]
< 10	CCCN1Cc2cc(N3CCCc4cc(C(=O)N5CCCCC5)cnc43)ccc2C1=O [Example 1-196]
< 10	CCCCN1Cc2cc(N3CCCc4cc(C(=O)N5CCCCC5)cnc43)ccc2C1=O [Example 1-197]
< 10	O=C(c1cnc2c(c1)CCCN2c1ccc2c(c1)CN(C1CC1)C2=O)N1CCCCC1 [Example 1-198]
10 to 100	O=C(c1cnc2c(c1)CCCN2c1ccccc1)N1CCCCC1 [Example 1-199]
10 to 100	COc1ccc(N2CCCc3cc(C(=O)N4CCCCC4)cnc32)cc1 [Example 1-200]
< 10	Cn1nnc(-c2ccc(N3CCCc4cc(C(=O)N5CCCCC5)cnc43)cc2)n1 [Example 1-201]
